In publication PMC7704793 (Bioorganic & medicinal chemistry letters, 2020):

Experiments:
MRSA ATCC 43300 = experiment: Inhibition of MRSA biofilm formation, crystal violet reporter assay; type: cell-based, Staphylococcus aureus; settings: SAR discussion
CCD-18 Co cells = experiment: MTT cytotoxicity assay in normal human colon cells; type: cell-based; settings: day 1, CCD-18 Co cells

Row | Structure (SMILES) | MRSA biofilm inhibition activity compared to the parent 5a (in words) (MRSA ATCC 43300) | also measured
1 | COc1ccc(-c2cc(-c3nc4ccccc4c(=O)[nH]3)nc(N)n2)cc1OC [Compound 5e] | reduced activity | 
2 | CSc1ccc(-c2cc(-c3nc4ccccc4c(=O)[nH]3)nc(N)n2)cc1 [Compound 5j] |  | cellular toxicity (MTT) (CCD-18 Co cells; 50 μM, versus DMSO controls): more cytotoxic
3 | COc1cc(-c2cc(-c3nc4ccccc4c(=O)[nH]3)nc(N)n2)cc(OC)c1OC [Compound 5i] | considerably reduced activity | 
4 | COc1cc(OC)c(-c2cc(-c3nc4ccccc4c(=O)[nH]3)nc(N)n2)c(OC)c1 [Compound 5h] |  | cellular toxicity (MTT) (CCD-18 Co cells; 50 μM, versus DMSO controls): minimal
5 | Nc1nc(-c2cccc(Br)c2)cc(-c2nc3ccccc3c(=O)[nH]2)n1 [Compound 5k] |  | cellular toxicity (MTT) (CCD-18 Co cells; 12.5 μM (lowest concentration used)): significant toxicity
6 | Nc1nc(-c2cccc(OCc3ccccc3)c2)cc(-c2nc3ccccc3c(=O)[nH]2)n1 [Compound 5r] | reduced activity | 
7 | Cc1ccc(-c2cc(-c3nc4ccccc4c(=O)[nH]3)nc(N)n2)cc1 [Compound 5b] | reduced activity | 
